`*OC(=O)Oc1ccc(C2(c3ccc(*)cc3)CCCCC2)cc1` (repeat unit) came in with a CH4 permeability of 0.092 Barrer, a CO2 permeability of 2.2 Barrer, an H2 permeability of 9.1 Barrer and an N2 permeability of 0.105 Barrer. The same compound displayed an O2 permeability of 0.6 Barrer.

With `*C(=O)c1ccc(C2(c3ccc(C(=O)c4ccc(Oc5ccc(C(=O)c6ccc(C(=O)c7ccc(Oc8ccc(*)cc8)cc7)cc6)cc5)cc4)cc3)OC(=O)c3ccccc32)cc1` (repeat unit), the CH4 permeability was 0.069 Barrer, the CO2 permeability came to 2.14 Barrer, the H2 permeability was 7.5 Barrer and the N2 permeability came out at 0.0729 Barrer. Also, the O2 permeability came to 0.51 Barrer.

Compound `*C(=C(*)c1ccc2c(c1)C(C)(C)CC2(C)C)c1ccc(Cl)cc1` (repeat unit) displayed a CH4 permeability of 22700 Barrer, a CO2 permeability of 35200 Barrer, an H2 permeability of 20600 Barrer and an N2 permeability of 9200 Barrer. Moreover, the O2 permeability came to 11700 Barrer.

`*CC(*)c1ccc(O)cc1` (repeat unit) returned an N2 permeability of 0.015 Barrer and an O2 permeability of 0.12 Barrer.

Compound `*C(=C(*)c1ccc([Si](C)(C)C)cc1)c1ccc(-c2ccc(C(C)(C)C)cc2)cc1` (repeat unit) displayed a CH4 permeability of 730 Barrer, a CO2 permeability of 3300 Barrer, an H2 permeability of 1200 Barrer and an N2 permeability of 250 Barrer. The O2 permeability was found to be 620 Barrer.

Consider `*[Si](C)(C)CCCCCCCC[Si](*)(C)C` (repeat unit), for which the N2 permeability was found to be 76.2 Barrer and the O2 permeability worked out at 188 Barrer.

Take `*CCCC*` (repeat unit): the CH4 permeability stood at 13 Barrer, the CO2 permeability was 48.4 Barrer, the N2 permeability came to 4 Barrer and the O2 permeability was found to be 11.3 Barrer.

As for `*[Si](C)(C)c1ccc([Si](*)(C)C)cc1` (repeat unit), the N2 permeability worked out at 3.39 Barrer and the O2 permeability was 14.1 Barrer.

Consider `*C(=C(*)c1cccc(O[Si](C)(C)C(C)(C)C)c1)c1ccc([Si](C)(C)C)cc1` (repeat unit), for which the CH4 permeability was found to be 1100 Barrer, the CO2 permeability was 2900 Barrer, the H2 permeability came to 1600 Barrer and the N2 permeability was 430 Barrer. The O2 permeability amounted to 810 Barrer.

For the compound `*c1ccc2c(-c3c(O)ccc4cc(N5C(=O)c6ccc(C(=O)c7ccc8c(c7)C(=O)N(*)C8=O)cc6C5=O)ccc34)c(O)ccc2c1` (repeat unit), the CH4 permeability came to 0.06 Barrer, the CO2 permeability amounted to 3.21 Barrer, the H2 permeability turned out to be 4.52 Barrer and the N2 permeability was determined as 0.11 Barrer. The O2 permeability is 0.76 Barrer.

Compound `*c1ccc(Oc2ccc(-n3c(=O)c4cc5c(=O)n(*)c(=O)c5cc4c3=O)cc2)cc1` (repeat unit) returned a CH4 permeability of 0.0682 Barrer, a CO2 permeability of 2.73 Barrer, an H2 permeability of 7.52 Barrer and an N2 permeability of 0.0995 Barrer. The O2 permeability turned out to be 0.591 Barrer.

The compound `*c1ccc(-c2ccc(Oc3ccc(C4(c5ccc(Oc6ccc(-c7ccc(N8C(=O)c9ccc(C(=O)c%10ccc%11c(c%10)C(=O)N(*)C%11=O)cc9C8=O)cc7)cc6C(F)(F)F)cc5)c5ccccc5C(=O)N4c4ccccc4)cc3)c(C(F)(F)F)c2)cc1` (repeat unit) gave a CH4 permeability of 0.62 Barrer, a CO2 permeability of 17.1 Barrer, an N2 permeability of 0.83 Barrer and an O2 permeability of 4.33 Barrer.

`*Oc1c(Br)cc(C(c2cc(Br)c(OC(=O)c3cc(C(*)=O)cc(C(C)(C)C)c3)c(Br)c2)(C(F)(F)F)C(F)(F)F)cc1Br` (repeat unit) yielded a CH4 permeability of 3.36 Barrer, a CO2 permeability of 85.1 Barrer, an H2 permeability of 149 Barrer and an N2 permeability of 4.47 Barrer. This compound came in with an O2 permeability of 22.1 Barrer.

As to `*c1ccc(C(C)(C)c2ccc(-c3nc4cc(-c5ccc6[nH]c(*)nc6c5)ccc4[nH]3)cc2)cc1` (repeat unit), the CH4 permeability was determined as 0.07 Barrer, the CO2 permeability stood at 2.91 Barrer, the H2 permeability stood at 12.2 Barrer and the N2 permeability turned out to be 0.13 Barrer. For the same compound, the O2 permeability turned out to be 0.6 Barrer.

Take `*O[Si](*)(C)c1ccccc1` (repeat unit): the CH4 permeability came out at 36 Barrer, the CO2 permeability stood at 239 Barrer, the N2 permeability stood at 8.59 Barrer and the O2 permeability turned out to be 28.8 Barrer.

In turn, `*Oc1ccc(S(=O)(=O)c2ccc(Oc3ccc(C(C)(C)c4ccc(*)cc4)cc3CN3C(=O)c4ccccc4C3=O)cc2)cc1` (repeat unit) came in with a CH4 permeability of 0.08 Barrer, a CO2 permeability of 2.12 Barrer, an N2 permeability of 0.08 Barrer and an O2 permeability of 0.54 Barrer.

`*C(=C(*)c1ccc(-c2ccccc2)cc1)c1ccccc1` (repeat unit): the CH4 permeability was found to be 170 Barrer, the CO2 permeability came out at 1300 Barrer, the H2 permeability is 440 Barrer and the N2 permeability was determined as 65 Barrer. In addition, the O2 permeability turned out to be 180 Barrer.

Regarding `*c1ccc2c3c(ccc2c1)OC1CC3c2c(ccc3cc(N4C(=O)c5ccc(C(c6ccc7c(c6)C(=O)N(*)C7=O)(C(F)(F)F)C(F)(F)F)cc5C4=O)ccc23)O1` (repeat unit), the CH4 permeability stood at 0.6 Barrer, the CO2 permeability was found to be 26.3 Barrer, the H2 permeability worked out at 60.2 Barrer and the N2 permeability was found to be 1.1 Barrer. Moreover, the O2 permeability stood at 5.85 Barrer.

In turn, `*Oc1ccc(Oc2ccc(Oc3ccc(S(=O)(=O)c4ccc(*)cc4)cc3)cc2)cc1` (repeat unit) came in with a CH4 permeability of 0.18 Barrer, a CO2 permeability of 4.3 Barrer, an H2 permeability of 15 Barrer and an N2 permeability of 0.196 Barrer. The compound also registered an O2 permeability of 1.1 Barrer.

Compound `*c1ccc(Oc2ccc(N3C(=O)c4ccc(-c5ccc6c(c5)C(=O)N(*)C6=O)cc4C3=O)cc2)cc1` (repeat unit) had a CH4 permeability of 0.018 Barrer, a CO2 permeability of 0.921 Barrer, an H2 permeability of 3.5 Barrer and an N2 permeability of 0.0215 Barrer. The O2 permeability worked out at 0.174 Barrer.

With `*CCC(F)(F)C(*)(F)F` (repeat unit), the CO2 permeability came out at 1.98 Barrer, the N2 permeability stood at 0.182 Barrer and the O2 permeability was 0.532 Barrer.

`*OC(=O)Oc1ccc(C2(c3ccc(*)cc3)c3ccccc3-c3ccccc32)cc1` (repeat unit) had a CH4 permeability of 0.581 Barrer, a CO2 permeability of 15.1 Barrer, an N2 permeability of 0.592 Barrer and an O2 permeability of 3.18 Barrer.

In turn, `*c1ccc(N(c2ccc(N3C(=O)c4ccc(C(c5ccc6c(c5)C(=O)N(*)C6=O)(C(F)(F)F)C(F)(F)F)cc4C3=O)cc2)c2ccc(N(c3ccccc3)c3ccccc3)cc2)cc1` (repeat unit) had a CH4 permeability of 1.24 Barrer, a CO2 permeability of 11.8 Barrer, an N2 permeability of 0.45 Barrer and an O2 permeability of 1.97 Barrer.

`*c1c(C)cc(C)c(-n2c(=O)c3cc4c(=O)n(*)c(=O)c4cc3c2=O)c1C` (repeat unit): the H2 permeability worked out at 235 Barrer, the N2 permeability is 8.44 Barrer and the O2 permeability turned out to be 36.3 Barrer.

Consider `*CC*` (repeat unit), for which the CH4 permeability was determined as 3.85 Barrer, the CO2 permeability worked out at 7.32 Barrer, the N2 permeability came out at 0.237 Barrer and the O2 permeability came out at 0.735 Barrer.

Turning to `*CC(*)OC1CC2CC1C1CCCC21` (repeat unit), the CO2 permeability came out at 12.6 Barrer, the N2 permeability came to 1.2 Barrer and the O2 permeability stood at 3.06 Barrer.

As for `*/C=C/c1ccc(*)cc1[Si](C)(C)C(C)(C)C` (repeat unit), the CO2 permeability is 26 Barrer, the N2 permeability stood at 1.5 Barrer and the O2 permeability came to 6.5 Barrer.

In turn, `*O[Si](*)(C)CCCCCCCC` (repeat unit) registered a CH4 permeability of 313 Barrer, a CO2 permeability of 932 Barrer, an N2 permeability of 88.3 Barrer and an O2 permeability of 196 Barrer.

For the compound `*c1ccc(N(c2ccc(OC)cc2)c2ccc(N3C(=O)c4ccc(C(c5ccc6c(c5)C(=O)N(*)C6=O)(C(F)(F)F)C(F)(F)F)cc4C3=O)cc2)cc1` (repeat unit), the CH4 permeability came out at 0.5 Barrer, the CO2 permeability worked out at 16.8 Barrer, the N2 permeability is 0.89 Barrer and the O2 permeability was found to be 4.28 Barrer.

In turn, `*Oc1cc2c(cc1O*)C1(CC2(C)C)CC(C)(C)c2cc3c(cc21)Oc1cc2nc4cc5c(cc4nc2cc1O3)C(C)(C)CC51CC(C)(C)c2cc3nc4cc(*)c(*)cc4nc3cc21` (repeat unit) displayed a CH4 permeability of 62 Barrer, a CO2 permeability of 1100 Barrer, an H2 permeability of 860 Barrer and an N2 permeability of 42 Barrer. For the same compound, the O2 permeability stood at 190 Barrer.

As for `*Oc1cc2c(cc1O*)C1(c3cc(C)c(C)cc3-2)c2cc(C)c(C)cc2-c2cc3c(cc21)Oc1c(C#N)c(*)c(*)c(C#N)c1O3` (repeat unit), the CH4 permeability was 1100 Barrer, the CO2 permeability came out at 13100 Barrer, the H2 permeability is 6700 Barrer and the N2 permeability was determined as 658 Barrer. The same compound gave an O2 permeability of 2360 Barrer.

Compound `*c1cc(C)c(C)c(N2C(=O)c3ccc(Oc4cc(C)c(Oc5ccc6c(c5)C(=O)N(*)C6=O)c(C)c4C)cc3C2=O)c1C` (repeat unit) gave a CH4 permeability of 4 Barrer, a CO2 permeability of 110 Barrer, an H2 permeability of 130 Barrer and an N2 permeability of 3.8 Barrer. The same compound yielded an O2 permeability of 18 Barrer.

`*OC1OC(OC(C)=O)C(*)C(OC(C)=O)C1OC(C)=O` (repeat unit) showed a CH4 permeability of 0.2 Barrer, a CO2 permeability of 6.56 Barrer, an H2 permeability of 15.5 Barrer and an N2 permeability of 0.23 Barrer. This compound displayed an O2 permeability of 1.46 Barrer.

With `*C(=C(*)c1ccc([Si](C(C)C)(C(C)C)C(C)C)cc1)c1ccccc1` (repeat unit), the CH4 permeability came to 315 Barrer, the CO2 permeability was determined as 1300 Barrer, the H2 permeability worked out at 635 Barrer and the N2 permeability was found to be 130 Barrer. Also, the O2 permeability came out at 290 Barrer.

As for `*CC(*)(C)C` (repeat unit), the H2 permeability is 13.3 Barrer, the N2 permeability came out at 0.76 Barrer and the O2 permeability amounted to 2.89 Barrer.

For the origin of these results see a polymer gas permeability compilation.
